Laboratory results as given in ChEMBL document CHEMBL5126616, “Therapeutic and Effective CURE-PRO Molecules for E3 Ligase-Mediated Targeted Protein Degradation” (ACS Med Chem Lett, 2022).

What was measured:
Type in all cases: protein assay
Design in all cases: concentration or dose not given beside the values
[1] = target: T1, Protein cereblon/Bromodomain-containing protein 4 (Homo sapiens) (UniProt O60885+Q96SW2); assay: PROTAC activity at CRBN/BRD4 (unknown origin) assessed as BRD4 degradation in presence of N-((2-(2,6-dioxopiperidin-3-yl)-1,3-dioxoisoindolin-4-yl)methyl)-2,3- dihydroxy benzamide (CRB-N8047) by Western blot analysis
[2] = target: T1, Protein cereblon/Bromodomain-containing protein 4 (Homo sapiens); assay: PROTAC activity at CRBN/BRD4 (unknown origin) assessed as BRD4 degradation in presence of N-((2-(2,6-dioxopiperidin-3-yl)-1,3-dioxoisoindolin-4-yl)methyl)-3,4- dihydroxy benzamide (CRB-N8046) by Western blot analysis
[3] = target: T1, Protein cereblon/Bromodomain-containing protein 4 (Homo sapiens); assay: PROTAC activity at CRBN/BRD4 (unknown origin) assessed as BRD4 degradation in presence of (1S,4R,5R,6S)-N-((2-(2,6-dioxopiperidin-3-yl)-1,3-dioxoisoindolin-4-yl)methyl)-5,6- dihydroxy bicyclo[2.2.1]heptane-2-carboxamide (CRB-N8066) by Western blot analysis

T1 sequence (Q96SW2 whole entry, looked up, other chains not shown): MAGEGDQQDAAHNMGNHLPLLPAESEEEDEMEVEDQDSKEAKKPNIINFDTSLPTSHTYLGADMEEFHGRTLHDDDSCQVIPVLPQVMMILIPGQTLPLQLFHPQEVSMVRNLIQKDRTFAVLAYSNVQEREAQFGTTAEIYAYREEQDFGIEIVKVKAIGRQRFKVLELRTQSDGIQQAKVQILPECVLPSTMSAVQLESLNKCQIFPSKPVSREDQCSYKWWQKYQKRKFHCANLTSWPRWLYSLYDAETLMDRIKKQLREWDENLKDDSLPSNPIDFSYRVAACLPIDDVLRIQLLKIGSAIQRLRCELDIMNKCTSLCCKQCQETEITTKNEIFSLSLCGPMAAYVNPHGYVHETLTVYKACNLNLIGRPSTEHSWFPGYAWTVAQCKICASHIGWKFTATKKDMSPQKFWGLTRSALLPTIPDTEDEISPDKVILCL

SMILES | Activity [1] [%] | Activity [2] [%] | Activity [3] [%]
COc1ccc2c(c1)C(c1ccc(Cl)cc1)=N[C@@H](CC(=O)NCc1ccc(B(O)O)cc1)c1nnc(C)n1-2 | 30 | – | –
COc1ccc2c(c1)C(c1ccc(Cl)cc1)=N[C@@H](CC(=O)NCCNC(=O)/C=C/c1ccc(B(O)O)cc1)c1nnc(C)n1-2 | 30 | 30 | 30
COc1ccc2c(c1)C(c1ccc(Cl)cc1)=N[C@@H](CC(=O)NCCCCCNC(=O)c1ccc(B(O)O)cc1)c1nnc(C)n1-2 | – | – | 30
COc1ccc2c(c1)C(c1ccc(Cl)cc1)=N[C@@H](CC(=O)NCCCCCNC(=O)c1cccc(B(O)O)c1)c1nnc(C)n1-2 | – | 30 | 30
COc1ccc2c(c1)C(c1ccc(Cl)cc1)=N[C@@H](CC(=O)NCCc1ccc(B(O)O)cc1)c1nnc(C)n1-2 | 30 | – | –
COc1ccc2c(c1)C(c1ccc(Cl)cc1)=N[C@@H](CC(=O)NCCNC(=O)/C=C/c1cccc(B(O)O)c1)c1nnc(C)n1-2 | 30 | – | 30
COc1ccc2c(c1)C(c1ccc(Cl)cc1)=N[C@@H](CC(=O)NCCCCNC(=O)c1ccc(B(O)O)cc1)c1nnc(C)n1-2 | 30 | – | 30
CCNC(=O)C[C@@H]1N=C(c2ccc(Cl)cc2)c2cc(OCCCCC(=O)Nc3cccc(B(O)O)c3)ccc2-n2c(C)nnc21 | – | 30 | 30
COc1ccc2c(c1)C(c1ccc(Cl)cc1)=N[C@@H](CC(=O)NCCCNC(=O)c1cccc(B(O)O)c1)c1nnc(C)n1-2 | 30 | 30 | 30
COc1ccc2c(c1)C(c1ccc(Cl)cc1)=N[C@@H](CC(=O)NCc1cccc(B(O)O)c1)c1nnc(C)n1-2 | 30 | 30 | –
